Test results published in ChEMBL document CHEMBL3638721, “C-linked hydroxamic acid derivatives useful as antibacterial agents” (2014).

Target: T1, UDP-3-O-acyl-N-acetylglucosamine deacetylase (Pseudomonas aeruginosa (strain ATCC 15692 / PAO1 / 1C / PRS 101 / LMG12228), UniProt P47205)
T1 sequence (P47205 whole entry): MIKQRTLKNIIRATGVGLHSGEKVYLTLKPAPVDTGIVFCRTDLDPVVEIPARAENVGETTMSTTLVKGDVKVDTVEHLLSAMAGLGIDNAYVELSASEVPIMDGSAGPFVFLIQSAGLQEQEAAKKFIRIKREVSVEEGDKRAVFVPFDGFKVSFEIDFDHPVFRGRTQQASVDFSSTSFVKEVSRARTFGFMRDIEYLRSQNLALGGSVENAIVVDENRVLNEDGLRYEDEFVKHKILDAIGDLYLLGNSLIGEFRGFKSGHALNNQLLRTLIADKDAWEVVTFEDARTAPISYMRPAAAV
Assay: At the end of 1 hour, 5 ul of 1N HCl was added to stop the enzyme reaction; the plates were centrifuged, and then processed with the BioTrove Rapidfire HTMS Mass Spectrometry System.

Structure (SMILES)	IC50
CC(CCc1ccc(OC2CCCCC2)cc1)(C(=O)NO)S(C)(=O)=O (configuration not stated)	0.753 nM
CCC(CC)COc1ccc(CCC(C)(C(=O)NO)S(C)(=O)=O)cc1 (configuration not stated)	1.29 nM
CCC(c1ccccc1)c1noc(COc2ccc(CCC(C)(C(=O)NO)S(C)(=O)=O)cc2)n1 (configuration not stated)	20.5 nM
CC(CCc1ccc(OCc2nc(-c3cccc(F)c3)no2)cc1)(C(=O)NO)S(C)(=O)=O (configuration not stated)	3.81 nM
CC(CCc1ccc(OCCCOCc2ccccc2)cc1)(C(=O)NO)S(C)(=O)=O (configuration not stated)	21.1 nM
Cc1ncccc1COc1ccc(CCC(C)(C(=O)NO)S(C)(=O)=O)cc1 (configuration not stated)	5.59 nM
CC(CCc1ccc(OCC2CC2)cc1)(C(=O)NO)S(C)(=O)=O (configuration not stated)	10.5 nM
CC(CCc1ccc(OCCOc2ccccc2)cc1)(C(=O)NO)S(C)(=O)=O (configuration not stated)	1.52 nM
CC(CCc1ccc(OCc2ccc(F)cc2C(F)(F)F)cc1)(C(=O)NO)S(C)(=O)=O (configuration not stated)	2.36 nM
CC(CCc1ccc(OCc2cccc(Cl)c2)cc1)(C(=O)NO)S(C)(=O)=O (configuration not stated)	1.32 nM
CCCCCCOc1ccc(CCC(C)(C(=O)NO)S(C)(=O)=O)cc1 (configuration not stated)	6.31 nM
CC(CCc1ccc(OCc2nc(-c3cccc(F)c3F)no2)cc1)(C(=O)NO)S(C)(=O)=O (configuration not stated)	5.31 nM
Cc1ccc(C)c(COc2ccc(CCC(C)(C(=O)NO)S(C)(=O)=O)cc2)c1 (configuration not stated)	4.25 nM
CC(CCc1ccc(OCc2nc(-c3cc(F)cc(F)c3)no2)cc1)(C(=O)NO)S(C)(=O)=O (configuration not stated)	5.81 nM
CC(CCc1ccc(OCc2nc(Cc3cc(F)ccc3F)no2)cc1)(C(=O)NO)S(C)(=O)=O (configuration not stated)	0.714 nM
Cc1cc(C)cc(COc2ccc(CCC(C)(C(=O)NO)S(C)(=O)=O)cc2)c1 (configuration not stated)	4.5 nM
COc1ccc(F)c(-c2noc(COc3ccc(CCC(C)(C(=O)NO)S(C)(=O)=O)cc3)n2)c1 (configuration not stated)	6.39 nM
Cc1cccc(COc2ccc(CCC(C)(C(=O)NO)S(C)(=O)=O)cc2)c1F (configuration not stated)	0.525 nM
Cc1ccc(COc2ccc(CCC(C)(C(=O)NO)S(C)(=O)=O)cc2)cc1 (configuration not stated)	1.02 nM

Structure (SMILES)	IC50
CC(CCc1ccc(OCC2CCC2)cc1)(C(=O)NO)S(C)(=O)=O (configuration not stated)	3.28 nM
CC(C)CCCOc1ccc(CCC(C)(C(=O)NO)S(C)(=O)=O)cc1 (configuration not stated)	3.22 nM
CC(CCc1ccc(OCc2cccc(F)c2)cc1)(C(=O)NO)S(C)(=O)=O (configuration not stated)	0.834 nM
Cc1ccc(-c2noc(COc3ccc(CCC(C)(C(=O)NO)S(C)(=O)=O)cc3)n2)cc1 (configuration not stated)	3.48 nM
Cc1ccc(COc2ccc(CCC(C)(C(=O)NO)S(C)(=O)=O)cc2)cn1 (configuration not stated)	5.96 nM
CC(CCc1ccc(OCCc2ccccc2)cc1)(C(=O)NO)S(C)(=O)=O (configuration not stated)	4.03 nM
CC(CCc1ccc(OCc2nc(C3CCCC3)no2)cc1)(C(=O)NO)S(C)(=O)=O (configuration not stated)	7.2 nM
CC(CCc1ccc(OCc2cccc(OC(F)(F)F)c2)cc1)(C(=O)NO)S(C)(=O)=O (configuration not stated)	2.71 nM
CC(CCc1ccc(OCc2cc(C#N)ccc2F)cc1)(C(=O)NO)S(C)(=O)=O (configuration not stated)	1.36 nM
CC(CCc1ccc(OCc2nc3ccccc3s2)cc1)(C(=O)NO)S(C)(=O)=O (configuration not stated)	0.651 nM
CC(CCc1ccc(OCc2ccc3ccccc3n2)cc1)(C(=O)NO)S(C)(=O)=O (configuration not stated)	13.9 nM
CC(CCc1ccc(OCCc2ccncc2)cc1)(C(=O)NO)S(C)(=O)=O (configuration not stated)	13.7 nM
CC(CCc1ccc(OCCC2CCCC2)cc1)(C(=O)NO)S(C)(=O)=O (configuration not stated)	1.27 nM
CC(CCc1ccc(OCCCC2CCCC2)cc1)(C(=O)NO)S(C)(=O)=O (configuration not stated)	2.55 nM
CC(CCc1ccc(OCCC2CCCCC2)cc1)(C(=O)NO)S(C)(=O)=O (configuration not stated)	2.79 nM
CC(CCc1ccc(OCCCC2CCCCC2)cc1)(C(=O)NO)S(C)(=O)=O (configuration not stated)	4.56 nM
CC(CCc1ccc(OCCCc2ccccc2)cc1)(C(=O)NO)S(C)(=O)=O (configuration not stated)	10.2 nM
CC(CCc1ccc(OCCC2CC2)cc1)(C(=O)NO)S(C)(=O)=O (racemic)	1.36 nM
